Measurements as given in ChEMBL document CHEMBL4316584, “All that glitters is not gold: Panning cytotoxic natural products and derivatives with a fused tricyclic backbone by the estimation of their leadlikeness for cancer treatment” (Eur J Med Chem, 2019).

Tests used:
A549 = assay: Cytotoxicity against human A549 cells after 48 hrs by MTT assay; type: functional, cell-based
HCT-116 = assay: Cytotoxicity against human HCT116 cells after 48 hrs by MTT assay; type: functional, cell-based; conditions: HCT-116, 48 h

SMILES	IC50 (A549; Homo sapiens, A549, 48 h)	IC50 (HCT-116)	also measured
COc1ccc(C(=O)/C=C/c2cc3c([nH]c4ccccc43)c(-c3ccc(F)c(OC)c3)n2)cc1	5.1 µM		
CC1=CC2C(=O)c3nccc(N(C)C)c3C(=O)C2N=C1 (stereo not given) [listing 1 of 2 here]			IC50 (A549; a549): 3.12 µM
O=C(/C=C/c1cc2c([nH]c3ccccc32)c(-c2ccc(F)cc2)n1)c1ccc(F)cc1	5.65 µM		
CC1=CC2C(=O)c3nccc(Cl)c3C(=O)C2N=C1 (stereo not given)	13.7 µM		
O=C1c2c(O)ccc(O)c2C(=O)c2c(NCCNCCO)ccc(NCCNCCO)c21 [MITOXANTRONE]	7.25 µM		
CC(C)c1cc2c(cc1O)[C@@]1(C)CCC[C@](C)(CO)[C@@H]1CC2	14 µM		
CC(=O)OC[C@]12Oc3ccc(-c4ccc5c(c4O)C(=O)C4=C(O)C[C@@H](C)[C@@H](OC(C)=O)[C@@]4(CO)O5)c(O)c3C(=O)C1=C(O)C[C@@H](C)[C@H]2OC(C)=O [DICERANDROL B]		3.94 µM	
CC(=O)N1N=C(c2ccc(N)cc2)CC1c1cc2c([nH]c3ccccc32)c(-c2ccc(F)c(F)c2)n1 (stereo not given)	9.77 µM		
O=c1c2ccc(O)c(O)c2oc2c(O)c(O)ccc12		18.5 µM	
CC(=O)N1N=C(c2ccco2)CC1c1cc2c([nH]c3ccccc32)c(-c2ccc(C(F)(F)F)cc2)n1 (stereo not given)	2.39 µM		
O=C(/C=C/c1cc2c([nH]c3ccccc32)c(-c2ccc(F)c(F)c2)n1)c1ccco1	9.54 µM		
COC1=CC(=O)c2c(O)c3c(c(O)c2C1=O)C[C@](C)(O)[C@H](O)[C@H]3O [BOSTRYCIN]		4.78 µM	
CN1CCN(CC2CCc3c(n(C)c4ccccc34)C2=O)CC1 (stereo not given)		14 µM	
CO[C@H]1[C@H](O)C[C@@H](O[C@@H]2C[C@H](Oc3cc4cc5c(c(O)c4c(O)c3C)C(=O)[C@@H](O[C@H]3C[C@H](O[C@H]4C[C@H](O[C@H]6C[C@@](C)(O)[C@@H](OC(C)=O)[C@H](C)O6)[C@H](O)[C@@H](C)O4)[C@H](O)[C@@H](C)O3)[C@H]([C@H](OC)C(=O)[C@@H](O)[C@@H](C)O)C5)O[C@H](C)[C@H]2OC(C)=O)O[C@@H]1C		0.3 µM	
CC1CCN(C2=CC(=O)c3c(O)c4c(c(O)c3C2=O)C[C@](C)(O)[C@H](O)C4)CC1		14.9 µM	
CCSC1=C(SCC)C(=O)c2c(O)c3c(c(O)c2C1=O)C[C@](C)(O)[C@H](O)[C@H]3O		0.95 µM	
CCCCNC1=CC(=O)c2c(O)c3c(c(O)c2C1=O)C[C@](C)(O)[C@H](O)C3		3.29 µM	
Cn1c2c(c3ccccc31)CCC(CN1CCOCC1)C2=O (stereo not given)		4.73 µM	
CC(=O)OC[C@]12Oc3ccc(-c4ccc(O)c5c4O[C@@]4(CO)C(=C(O)C[C@@H](C)[C@H]4OC(C)=O)C5=O)c(O)c3C(=O)C1=C(O)C[C@@H](C)[C@H]2OC(C)=O		6.92 µM	
C[C@]1(O)Cc2c(O)c3c(c(O)c2[C@H](O)[C@H]1O)C(=O)C(SCCCO)=C(SCCCO)C3=O		3.08 µM	
COC(=O)c1ccc2c(=O)c3c(OC)cc(CCO)cc3oc2c1O	4.8 µM		
Cc1cnc2c(c1)C(=O)C1N=CC=CC1C2=O (stereo not given)	3.72 µM		

SMILES	IC50 (A549; Homo sapiens, A549, 48 h)	IC50 (HCT-116)	also measured
COc1ccnc2c1C(=O)C1N=CC=C(c3ccccc3)C1C2=O (stereo not given)	10.6 µM		
CC1CCN(CC2CCc3c(n(C)c4ccccc34)C2=O)CC1 (stereo not given)	0.71 µM		
CC(=O)N1N=C(c2ccc(N)cc2)CC1c1cc2c([nH]c3ccccc32)c(-c2ccc(C(F)(F)F)cc2)n1 (stereo not given)	13.2 µM		
CC1CCN(C2=CC(=O)c3c(O)c4c(c(O)c3C2=O)C[C@](C)(O)[C@H](O)[C@H]4O)CC1		3.25 µM	
CC1=CC2C(=O)c3nccc(I)c3C(=O)C2N=C1 (stereo not given)	0.14 µM		
COc1cc(-c2nc(/C=C/C(=O)c3ccco3)cc3c2[nH]c2ccccc23)cc(OC)c1OC	3.8 µM		
Cn1c2c(c3ccccc31)CCC(CN1CCCC1)C2=O (stereo not given)		12.8 µM	
Cc1nccc2c3ccccc3n(CCCCn3c4ccccc4c4ccnc(C)c43)c12		3.58 µM	
O=C(/C=C/c1cc2c([nH]c3ccccc32)c(-c2cccc(Cl)c2)n1)c1ccco1	18.6 µM		
CCCCn1c2c(c3ccccc31)CCC(CN1CCOCC1)C2=O (stereo not given)		5.82 µM	
O=c1c2ccc(O)c(O)c2oc2cc(O)cc(O)c12		18.6 µM	
COc1cc(C2=NN(C(C)=O)C(c3cc4c([nH]c5ccccc54)c(-c4ccc(F)c(F)c4)n3)C2)cc(OC)c1OC (stereo not given)	11 µM		
Nc1ncnc2c1ncn2Cc1cc(O)c2c(c1)C(=O)c1cccc(O)c1C2=O		7.8 µM	
C[C@]1(O)Cc2c(O)c3c(c(O)c2[C@H](O)[C@H]1O)C(=O)C=C(NCc1ccc(F)cc1)C3=O		4.92 µM	
O=C(/C=C/c1cc2c([nH]c3ccccc32)c(-c2ccc(F)c(F)c2)n1)c1cccs1	6.76 µM		
CCCCCCNC1=CC(=O)c2c(O)c3c(c(O)c2C1=O)C[C@](C)(O)[C@H](O)C3		3.14 µM	
COc1ccc(C(=O)/C=C/c2cc3c([nH]c4ccccc43)c(-c3ccc(F)cc3)n2)cc1	8.43 µM		
C[C@]1(O)Cc2c(O)c3c(c(O)c2C[C@H]1O)C(=O)C=C(N1CCCCC1)C3=O		16.3 µM	
CC(=O)N1N=C(c2ccco2)CC1c1cc2c([nH]c3ccccc32)c(-c2cccc(Cl)c2)n1 (stereo not given)	15.4 µM		
C=C[C@@]1(C)C=C2[C@@H](O[C@@H]3O[C@H](C)[C@H](O)[C@H](O)[C@H]3O)C[C@@H]3C(C)(C)[C@H](O[C@@H]4O[C@@H](C)[C@H](O)[C@@H](O)[C@H]4OC(C)=O)CC[C@@]3(C)[C@@H]2CC1	10.4 µM		
CC(C)(O)c1ccc2c(c1)C(=O)C[C@H]1C(C)(C)CCC[C@]21C	14 µM		
COC(=O)c1c(O)ccc2oc3cc(C)cc(O)c3c(=O)c12	5.2 µM		

SMILES	IC50 (A549; Homo sapiens, A549, 48 h)	IC50 (HCT-116)	also measured
C[C@]1(O)Cc2c(O)c3c(c(O)c2[C@H](O)[C@H]1O)C(=O)C=C(Nc1ccccc1)C3=O		4.84 µM	
CC(C)=CCc1c(O)cc(O)c2c(=O)c3c(O)cccc3oc12		10.8 µM	
CC1=CC2C(=O)c3nccc(N(C)C)c3C(=O)C2N=C1 (stereo not given) [listing 2 of 2 here]	3.29 µM		
Cn1c2c(c3ccccc31)CCC(CN1CCCCC1)C2=O (stereo not given)		2.33 µM	
Cn1c2c(c3ccccc31)CCC(Cn1ccnc1)C2=O (stereo not given)		3.12 µM	
Cc1cnc2c(c1)C(=O)C1N=CC=C(C=O)C1C2=O (stereo not given)	0.33 µM		
Cc1cnc2c(c1)C(=O)C1C=CC=NC1C2=O (stereo not given)	2.23 µM		
COc1cc(-c2nc(C3CC(c4ccco4)=NN3C(C)=O)cc3c2[nH]c2ccccc23)cc(OC)c1OC (stereo not given)	3.2 µM		
CC(C)=CCn1c2c(c3ccccc31)CCC(CN1CCOCC1)C2=O (stereo not given)		4.55 µM	
CCN(CC)CC1CCc2c(n(C)c3ccccc23)C1=O (stereo not given)	0.07 µM		
O=c1c2ccccc2oc2cc(O)ccc12	14.6 µM		
CCCCCCOc1cccc2c1C(=O)c1c(OCCCCCC)cc(Cn3cnc4c(N)ncnc43)cc1C2=O		8.1 µM	
CCCCCCSC1=C(SCCCCCC)C(=O)c2c(O)c3c(c(O)c2C1=O)C[C@](C)(O)[C@H](O)[C@H]3O		0.74 µM	
O=C1c2c(O)ccnc2C(=O)C2C(c3ccccc3)=CC=NC12 (stereo not given)	14.5 µM		
CC(C)=CCc1c(O)c(CC=C(C)C)c2oc3ccc(O)cc3c(=O)c2c1O	8.85 µM		
Cc1cnc2c(c1)C(=O)C1N=CC=C(/C=C/C#N)C1C2=O (stereo not given)	7.88 µM		
COc1cc(O)c2c(c1)C(=O)C1=C(C[C@@H](O)[C@@](C)(O)[C@@H]1O)C2=O [ALTERSOLANOL C]		3.03 µM	
O=C(/C=C/c1cc2c([nH]c3ccccc32)c(-c2ccc(C(F)(F)F)cc2)n1)c1ccco1	2.57 µM		
CCCCCCSC1=C(SCCCCCC)C(=O)c2c(O)c3c(c(O)c2C1=O)C[C@@H](O)[C@@](C)(O)C3		2.94 µM	
O=c1c2ccc(O)cc2oc2cc(O)cc(O)c12		19.8 µM	
CCCCSC1=C(SCCCC)C(=O)c2c(O)c3c(c(O)c2C1=O)C[C@@H](O)[C@@](C)(O)C3		2.75 µM	
